From ChEMBL document CHEMBL2331377, “Spirocyclic compounds, potent CCR1 antagonists” (Bioorg Med Chem Lett, 2013)
pIC50: −log10 of the molar value.

Key:
[1] = target: T1, C-C chemokine receptor type 1 (Homo sapiens, UniProt P32246); assay: Displacement of [125I]MIP-1alpha from human recombinant CCR1 expressed in HEK293 cells after 1.5 hrs; format: cell-based
T1 sequence (P32246 whole entry): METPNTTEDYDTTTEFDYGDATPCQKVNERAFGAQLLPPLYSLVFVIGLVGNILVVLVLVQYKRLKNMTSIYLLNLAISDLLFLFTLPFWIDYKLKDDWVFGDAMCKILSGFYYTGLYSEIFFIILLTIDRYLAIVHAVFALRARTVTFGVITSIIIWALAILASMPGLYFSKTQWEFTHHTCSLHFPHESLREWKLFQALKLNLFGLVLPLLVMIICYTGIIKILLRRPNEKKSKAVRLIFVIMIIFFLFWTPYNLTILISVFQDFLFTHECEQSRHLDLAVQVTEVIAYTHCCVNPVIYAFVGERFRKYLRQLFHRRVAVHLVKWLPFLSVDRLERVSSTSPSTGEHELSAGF

[2] = in vitro; settings: human
[3] = in vitro; settings: human, Caco-2
[4] = in vitro; settings: rat, hepatocytes
[5] = in vitro; settings: human, hepatocytes
[6] = Clearance in rat liver microsomes; format: ADME, Microsome; settings: read-out: CLH

| SMILES | pIC50 [1] | microsomal CLint ([2]; liver microsomes) [µL/min/mg] | Papp [3] [×10⁻⁶ cm/s] | hepatocyte CLint [4] [µL/min/1e6 cells] | hepatocyte CLint [5] [µL/min/1e6 cells] | microsomal CLint [6] [µL/min/mg] | microsomal CLint ([2]; microsomes) [µL/min/mg] |
| --- | --- | --- | --- | --- | --- | --- | --- |
| COc1ccc(NC(C)=O)c(OC[C@@H](O)CN2CCC3(CC2)Cc2cc(Cl)ccc2O3)c1 | 9.05 | 55 | 24.4 | – | – | – | – |
| COc1ccc(NC(C)=O)c(OC[C@@H](N)CN2CCC3(CC2)Cc2cc(Cl)ccc2O3)c1 | 8.22 | 12.6 | – | – | – | – | – |
| COc1ccc(NC(C)=O)c(OC[C@@H](N)CN2CCC3(CC2)Cc2cc(F)ccc2O3)c1 | 8.05 | 17.4 | – | – | 3.5 | – | – |
| COc1ccc(NC(C)=O)c(OC[C@@H](N)CN2CCC3(CC2)Cc2ccccc2O3)c1 | 7.49 | 18.8 | – | – | – | – | – |
| CC(=O)Nc1ccc(O)cc1OC[C@@H](N)CN1CCC2(CC1)Cc1cc(Cl)ccc1O2 | 9.10 | < 10 | 2.7 | 4.2 | < 3 | < 10 | – |

More lines, now with the values ahead:

| pIC50 [1] | microsomal CLint ([2]; liver microsomes) [µL/min/mg] | Papp [3] [×10⁻⁶ cm/s] | hepatocyte CLint [4] [µL/min/1e6 cells] | hepatocyte CLint [5] [µL/min/1e6 cells] | microsomal CLint [6] [µL/min/mg] | microsomal CLint ([2]; microsomes) [µL/min/mg] | SMILES |
| --- | --- | --- | --- | --- | --- | --- | --- |
| 9.19 | 13.5 | 17 | 17.5 | 6.1 | – | – | CC(=O)Nc1ccc(F)cc1OC[C@@H](O)CN1CCC2(CC1)Cc1cc(Cl)ccc1O2 |
| 9.02 | < 17 | 26 | 26 | 2.5 | – | – | CC(=O)Nc1ccccc1OC[C@@H](O)CN1CCC2(CC1)Cc1cc(Cl)ccc1O2 |
| 9.44 | 17.8 | 18 | 12 | 9.3 | 29 | – | CC(=O)Nc1ccc(F)cc1OC[C@@H](O)CN1CCC2(CC1)Cc1cc(F)ccc1O2 |
| 9.02 | 25.5 | 16.5 | – | 11 | – | – | CC(=O)Nc1ccccc1OC[C@@H](O)CN1CCC2(CC1)Cc1cc(F)ccc1O2 |
| – | < 10 | – | 25.7 | < 3 | – | – | CC(=O)Nc1ccc(O)cc1OC[C@@H](O)CN1CCC2(CC1)Cc1cc(Cl)ccc1O2 |
| – | – | 6.6 | 17.6 | < 3.6 | – | < 10 | CC(=O)Nc1ccc(O)cc1OC[C@@H](O)CN1CCC2(CC1)Cc1cc(F)ccc1O2 |
| 8.85 | < 10 | 2.7 | < 3 | < 3 | < 10 | – | CC(=O)Nc1ccc(O)cc1OC[C@@H](N)CN1CCC2(CC1)Cc1cc(F)ccc1O2 |
| 7.74 | < 10 | 1.6 | 6.6 | < 3 | 14 | – | CC(=O)Nc1ccc(O)cc1OC[C@@H](N)CN1CCC2(CC1)Cc1ccccc1O2 |
